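These data come from cells grown in 96-well plates and exposed to compound for 48 hours at five concentrations. Here, GI50 denotes the concentration required for 50% inhibition of growth. TGI: total growth inhibition.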
Legend:
Test in all cases: NCI-60 cell line screen, 48 h
BT-549 breast = test system: BT-549 breast
T-47D breast = test system: T-47D breast
MDA-MB-231 breast = test system: MDA-MB-231 breast
DU-145 prostate = test system: DU-145 prostate
HS 578T breast = test system: HS 578T breast
MDA-MB-435 = test system: MDA-MB-435

SMILES	GI50 (BT-549 breast) [µM]	TGI (BT-549 breast) [µM]	GI50 (T-47D breast) [µM]	TGI (T-47D breast) [µM]	GI50 (MDA-MB-231 breast) [µM]	TGI (MDA-MB-231 breast) [µM]	GI50 (DU-145 prostate) [µM]	TGI (DU-145 prostate) [µM]	GI50 (HS 578T breast) [µM]	TGI (HS 578T breast) [µM]	GI50 (MDA-MB-435) [µM]	TGI (MDA-MB-435) [µM]
N#Cc1c(O)c2c(c(O)c1C#N)C(=O)c1ccccc1C2=O	3.77	14.9	2.71	9.2	2.01	9.55	1.19	2.5	1.26	5.87	–	–
CCOC(=O)c1cc(-c2ccc([N+](=O)[O-])cc2)n(-c2ccc(C(=O)O)c(O)c2)c1C	3.83	18.1	2.81	11.4	10.3	29.9	4.55	17.5	3.64	17	3.62	14.6
O=C(Cc1ccc(/C=C/C(=O)c2ncc[nH]2)cc1)Nc1ccc(Cl)cc1	3.46	11.2	3.24	16.2	4.27	14.9	1.7	7.39	18.8	> 25	4.14	> 25
COc1cc2c(c(OC)c1OC)-c1ccc(NCc3ccccc3)c(=O)cc1[C@@H](NC(C)=O)CC2	1.41	26.1	0.589	41.5	0.461	11.7	0.374	7.91	0.362	43	0.187	0.486
Cn1c(-c2nonc2N)nc2cnccc21	17.6	> 25	> 25	> 25	> 25	> 25	> 25	> 25	14.9	> 25	> 25	> 25
O=C(O)Cc1c[nH]c2ccc(F)cc12	–	> 100	–	> 100	–	> 100	–	> 100	–	–	–	> 100
COc1cccc(-c2nn(-c3ccccc3)cc2-c2ccnc(NCCCNS(=O)(=O)c3cccc(F)c3)c2)c1	2.76	> 100	1.54	5.27	3.43	> 100	6.33	> 100	6.52	> 100	3.68	58.8
COc1cc2c(NCCCCCCO[N+](=O)[O-])ncnc2c(OC)c1OC	–	56	–	> 93.2	–	38	–	72.2	–	> 87.4	–	42.3
CCN1CCN(c2nc(NCCNc3ccnc4cc(Cl)ccc34)c3ccccc3n2)CC1	2.01	5.39	1.92	4.42	1.28	2.88	2.17	9.14	2.19	7.36	1.64	3.14
OC(c1cccc(C(F)(F)F)c1)c1cnccc1NC1CCCCCC1 (stereo not drawn)	2.13	5.47	1.79	4.82	1.64	3.22	2.77	7.53	2.04	5.57	1.66	3.13
CN1CCN(Cc2ccc(NC(=O)c3cncc(C#Cc4cnc(N)c5ccccc45)c3)cc2C(F)(F)F)CC1	1.57	5.8	1.01	4.11	0.369	0.82	0.213	0.678	0.371	1.18	0.348	0.783
C[C@@H]1Cc2c([nH]c3ccccc23)[C@@H](c2c(F)cc(/C=C/C(=O)O)cc2F)N1CC(C)(C)F	11.3	26.3	0.0916	51.3	18.4	38	19.1	> 62.3	12.8	45.4	14	31
O=C1CSC(N2CCN(c3cccc(Cl)c3)CC2)=N1	> 100	> 100	> 100	> 100	> 100	> 100	> 100	> 100	> 100	> 100	> 100	> 100
CCOc1ccc2nc(NC(=O)/C(CC(=O)CC(C3=C(O)c4ccccc4CC3=O)c3ccccc3)=N\O)sc2c1 (stereo not drawn)	–	> 100	–	> 100	–	> 100	–	> 100	–	> 100	–	> 100
CC1=C2[C@@H](CC1)[C@]1(C)O[C@@](C(C)C)(C[C@H]1OC(=O)[C@H](C)O)[C@H]2OC(=O)/C=C/c1ccccc1	0.888	15.7	5.38	22.4	15.3	36.4	15.9	31.9	0.0529	0.378	15.5	30.9
Clc1ccc(Cc2nc3cc4ccccc4cc3[nH]2)cc1	14.1	> 100	23.1	88.6	25.4	96.1	17.1	> 100	12.4	67.7	27.8	> 100
CN=C1NC(=O)/C(=C/c2ccc3ncccc3c2)S1	6.12	> 23	5.24	24.4	18.5	> 25	5.78	> 25	6.24	> 21	4.06	> 25
Cn1cc(C2=C(c3ccc(OC[C@@H](O)CO)cc3)C(=O)NC2=O)c2ccccc21	> 25	> 25	> 25	> 25	> 25	> 25	> 25	> 25	7.87	> 25	> 25	> 25
NNC(=O)c1cnn(-c2ccnc3c(C(F)(F)F)cccc23)c1N	> 100	> 100	> 100	> 100	> 100	> 100	> 100	> 100	> 100	> 100	> 100	> 100
COc1ccccc1NC(=O)c1ccc(/C=C/C(=O)c2nccn2C)cc1	0.509	1.19	0.711	2.58	0.835	9.25	0.504	1.09	1.1	9.8	0.548	1.3
NS(=O)(=O)c1ccc(-n2nc(-c3ccc(Br)cc3)ccc2=O)cc1	> 10	> 10	> 10	> 10	> 10	> 10	> 10	> 10	> 10	> 10	3.72	> 10
CC[n+]1ccc2c(c1)C(=O)c1nccc3c1c-2nc1ccccc13	0.832	3.12	2.2	9.19	2.17	14	1.03	4.31	0.955	> 10.1	2.34	7.24
CCOC(=O)c1c(N)n(-c2ccccc2)c(=S)n(-c2ccccc2)c1=O	–	> 100	–	> 100	–	> 100	–	> 100	–	> 100	–	> 100
CC(=O)c1ccc(N(/C=C/C(=O)C(F)(F)F)CC(=O)c2ccc(Cl)c(Cl)c2)cc1	19.9	38.9	26.4	75.4	11.6	25	19.2	36.1	20.3	45.2	3.43	11.7
O=C1c2ccccc2C(=O)c2c1ccc1[nH]c(CCl)nc21	3.52	12.7	1.96	4.37	3.74	15.3	4.27	14.5	2.94	14.7	3.37	11.8
COC(=O)[C@@H](C)C[C@H](Cc1ccccc1)NC(=O)c1nc([C@@H](C[C@H](C(C)C)N(C)C(=O)[C@@H](NC(=O)[C@H]2CCCN2C)C(C)C)OC(C)=O)sc1C	< 0.0025	0.145	–	–	0.00613	4.64	< 0.0025	> 25	< 0.0025	15.8	< 0.0025	< 0.0025
CN(C)S(=O)(=O)Nc1ccccn1	–	> 100	–	–	–	> 100	–	> 100	–	> 100	–	> 100
CNC(=O)c1cc(Oc2ccc3c(c2)sc2nc(-c4ccc(N)cc4)cn23)ccn1	0.5	51.6	0.397	57.6	0.726	> 100	0.344	> 100	0.224	> 100	–	–
Cc1c(N2C(=O)/C(=C\c3ccccc3O)N=C2c2ccccc2)c(=O)n(-c2ccccc2)n1C	–	–	16.3	> 100	41.9	> 100	87.4	> 100	27.9	75.3	54	> 100

Source: PubChem BioAssay (NCI)
